Values after ≈ are worked out from the molar mass of the structure shown. Values joined by “and” are separate entries in the source; they are usually repeats but may differ in a detail not shown here. Equal entries are not always repeated. Where two headings read alike, the source gives them in different places.
Experiments:
[1] = Octanol/pH 7.4 buffer partition coefficient, shake flask; conditions: pH 7.4
In short: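 Octanol stocks (3-30 mg/mL) were diluted 3- and 10-fold and shaken with equal volumes of pH 7.4 phosphate buffer (67 mM, in 43 mM NaCl) at 37 °C. Both phases were quantified by LC-MS against calibration standards. The coefficient is the mean octanol/buffer concentration ratio, with two time points confirming equilibrium.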

[2] = Solubility in biorelevant media; conditions: for solubility / solubility at 1 h: thermodynamic from solid; for solubility at 1 h: 37 °C, fassgf or other biorelevant
Description: Solubility of each active pharmaceutical ingredient was evaluated at 37 °C in pH 7.4 phosphate buffered saline (prepared as described for the partitioning experiments), fasted (FaSSIF-V2) and fed (FeSSIF-V2) state simulated intestinal fluids and fasted state simulated gastric fluid (FaSSGF) as described by Jantratid et al.. […] Samples were vortexed and placed in a 37 °C incubator on an orbital mixer (IKA® VXR basic Vibrax® orbital mixer) set at 600 rpm. Sampling times were 1 h for FaSSGF or 5–6 h for FaSSIF-V2, FeSSIF-V2, and PBS. These times were used to reflect the maximal likely residence times within the stomach and small intestine, respectively. Sampling was carried out by centrifuging each sample at 10,000 rpm for 3 min, transferring 300 µL aliquots into fresh Eppendorf tubes and centrifuging these tubes again at 10,000 rpm for 3 min. Triplicate aliquots of the supernatant were then removed and diluted 1:2 in 50% aqueous methanol and then again in 50% aqueous acetonitrile to be within the analytical concentration range. Samples were analysed by LC–MS along with calibration standards (Additional file 1: Table S2).

[3] = Solubility limited absorbable dose (SLAD) calculation with predicted human jejunal Peff; conditions: for An (absorption number): Peff × tres/R, minimum 1; for SLAD: Ssi × V (500 mL) × Mp; for Permeability classification: based on ref 80 and control compounds; for Predicted human Peff: from Caco-2 Papp via calibration plot; for solubility: FaSSIF
Source text: Predicted Peff values were obtained from a calibration plot of literature Peff values vs measured Caco-2 Papp using either buffer or plasma as the transport medium (see Results section).

[4] = Plasma protein binding via ultracentrifugation (UC); format: in vitro ADME, human; conditions: pH 7.4
Description: Pooled human plasma (n = 3–4 donors) was obtained by centrifugation of blood (collected by the Australian Red Cross Blood Service, Melbourne, Australia or the Volunteer Blood Donor Registry, Clinical Translation Centre, Walter & Eliza Hall Institute of Medical Research, Parkville, Australia), or sourcing pooled plasma directly from commercial sources (Innovative Research Inc, MI) and stored frozen at − 80 °C.
An ultracentrifugation method adapted from a previous publication was initially used to assess plasma protein binding and binding in the other media. […] Additional ultracentrifuge tubes containing spiked matrix were maintained at 37 °C, 5% or 10% CO2 or normal atmosphere conditions, with aliquots being taken within 0.5 h of the start and at the end of ultracentrifugation to serve as controls for the assessment of stability and to obtain a measure of the total concentration (Ctotal). Following ultracentrifugation, the pH was checked and an aliquot of protein-free supernate was taken from each ultracentrifuge tube for determination of the unbound concentration (Cunbound).
Total matrix and protein free samples were analysed using a matrix matching approach whereby each sample was mixed in a 1:1 ratio with the opposite blank medium (i.e. blank total matrix or blank protein free buffer). For example, plasma samples were mixed with blank pH 7.4 buffer whereas plasma supernatant samples were mixed with blank plasma. Each of the sample sets were then assayed against a common calibration curve prepared in a 1:1 mixture of total matrix and protein free pH 7.4 buffer. […] The standard deviation for fu was calculated using the propagation of errors approach as described previously. The potential for compound degradation was assessed by comparing the average value for Ctotal at the start and end of the experiment.

[5] = biological target: T1, Albumax medium (lipid rich bovine serum albumin) (Bos taurus, UniProt P02769); assay: Binding in Albumax medium via ultracentrifugation; format: in vitro ADME; conditions: bovine, pH 7.4
T1 construct: purchased Gibco, Thermo Fisher Scientific
T1 sequence (P02769 25-607): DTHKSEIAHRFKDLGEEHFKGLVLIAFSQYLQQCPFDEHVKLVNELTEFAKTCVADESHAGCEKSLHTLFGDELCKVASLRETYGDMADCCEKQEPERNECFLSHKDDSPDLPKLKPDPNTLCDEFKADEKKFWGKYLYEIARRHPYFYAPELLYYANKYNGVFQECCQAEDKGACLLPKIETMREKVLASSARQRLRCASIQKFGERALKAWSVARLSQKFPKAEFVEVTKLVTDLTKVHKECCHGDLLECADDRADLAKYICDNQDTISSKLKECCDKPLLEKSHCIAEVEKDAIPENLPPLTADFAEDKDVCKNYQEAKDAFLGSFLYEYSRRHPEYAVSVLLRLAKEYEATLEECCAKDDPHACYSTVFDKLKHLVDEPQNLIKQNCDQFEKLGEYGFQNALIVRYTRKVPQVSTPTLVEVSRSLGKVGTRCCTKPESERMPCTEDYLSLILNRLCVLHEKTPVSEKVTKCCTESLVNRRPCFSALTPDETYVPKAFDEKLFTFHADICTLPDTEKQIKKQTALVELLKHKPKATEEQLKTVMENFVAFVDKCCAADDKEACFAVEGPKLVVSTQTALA
In short: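 Unbound fraction (fu) taken as protein-free supernate concentration over total concentration after ultracentrifuging compound-spiked Albumax at 37 °C (5% or 10% CO2, or air). Analysis used 1:1 mixing with the opposite blank matrix against a common pH 7.4 calibration; degradation judged by start versus end Ctotal.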

[6] = in vitro; conditions: human, pH 7.4, HLM CLint
In short: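 Compound depletion in human liver microsomes was followed by LC–MS at 2–60 min, with cofactor-free controls. First-order depletion rate constants gave in vitro CLint (µL/min/mg protein), corrected to unbound CLint using measured microsomal fu.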

[7] = biological target: CYP2C9 (Homo sapiens, UniProt P11712); assay: Cytochrome P450 inhibition in human liver microsomes
Chain of CYP2C9 (P11712 whole entry, canonical isoform): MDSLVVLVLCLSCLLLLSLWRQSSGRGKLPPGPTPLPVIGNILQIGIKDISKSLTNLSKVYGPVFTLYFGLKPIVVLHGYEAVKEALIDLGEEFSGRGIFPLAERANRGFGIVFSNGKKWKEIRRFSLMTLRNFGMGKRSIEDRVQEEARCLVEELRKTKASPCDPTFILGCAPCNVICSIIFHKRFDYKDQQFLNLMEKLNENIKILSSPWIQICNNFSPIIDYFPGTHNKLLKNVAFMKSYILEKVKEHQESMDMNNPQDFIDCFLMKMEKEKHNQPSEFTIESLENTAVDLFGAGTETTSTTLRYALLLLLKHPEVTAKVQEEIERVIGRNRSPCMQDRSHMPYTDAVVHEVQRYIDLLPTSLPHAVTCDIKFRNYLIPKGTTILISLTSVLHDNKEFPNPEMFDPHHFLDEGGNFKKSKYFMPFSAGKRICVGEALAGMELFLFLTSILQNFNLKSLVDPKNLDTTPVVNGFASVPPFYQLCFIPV
In short: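 LC–MS measurement of the metabolite formed by one CYP isoform from its probe substrate in human liver microsomes, with and without test compound, provided the data. Values are percent inhibition of that metabolic pathway.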

[8] = phosphate buffered saline pH 7.4, 37 °C, pH 7.4, aqueous buffer
[9] = human, neat pooled plasma, ultracentrifugation, neat plasma, read-out: Fraction unbound, human plasma
[10] = liver microsomes, human liver microsomes, average of n = 2 replicates, < 7 means < 15% loss over 60 min

| SMILES | logD ([1]; octanol/pH 7.4 buffer) | solubility [2, 8] | An (absorption number) [3] | SLAD [3] | Permeability classification [3] | Predicted human Peff [3] | fraction unbound at […] [4, 9] | solubility at 1 h ([2]; FaSSGF) | solubility ([2]; FaSSIF-V2, 37 °C, fassif) | solubility ([2]; FeSSIF-V2, 37 °C, fessif) | solubility [3] | IC50 [7] | microsomal CLint at 1 µM [6, 10] | fraction unbound at […], 500 ng/mL ([5]; isolated protein) | CYP2C9 % inhibition at max conc ([7]; microsomes) | other results |
| --- | --- | --- | --- | --- | --- | --- | --- | --- | --- | --- | --- | --- | --- | --- | --- | --- |
| Cc1cc(Nc2ccc(S(F)(F)(F)(F)F)cc2)n2nc(C(C)(F)F)nc2n1 [DSM265] | 4.03 | 2.04 µg/mL and 4.9 µM | 5.7 | 14 mg | High (> 85% absorption (high)) | 4.8 10^−4 cm/s | 0.008 | – | – | – | – | – | – | – | – | – |
| CCCCN(CCCC)CCC(O)c1cc2c(Cl)cc(Cl)cc2c2cc(C(F)(F)F)ccc12 (centres unmarked) [Halofantrine] | – | < 0.05 µg/mL and < 0.1 µM | 13 | 466 mg | High (> 85% absorption (high)) | 11 10^−4 cm/s | 0.13 | 12.7 µg/mL and 25.4 µM | 69.9 µg/mL and 140 µM | 739 µg/mL and 1480 µM | 69.9 µg/mL (≈ 140 µM) | > 20 µM | – | – | – | fraction unbound at […], 500 ng/mL ([5]; Albumax medium): 0.008 ± 0.001; microsomal CLint at 1 µM ([6]; microsomes): 26.9 µL/min/mg; CYP2C9 % inhibition at max conc ([7]; human liver microsomes, at max conc, nmi = no measurable inhibition): nmi |
| COc1cc(C)c2c(Oc3cccc(C(F)(F)F)c3)c(OC)cc(NC(C)CCCN)c2n1 (centres unmarked) [Tafenoquine] | 4.24 | 18.3 µg/mL and 39.5 µM | 13 | 105 mg | High (> 85% absorption (high)) | 11 10^−4 cm/s | 0.11 | > 2000 µg/mL and > 2800 µM | 15.8 µg/mL and 34.1 µM | 1310 µg/mL and 2820 µM | 15.8 µg/mL (≈ 34.1 µM) | 14 µM | < 7 µL/min/mg | – | – | logD ([1]; octanol/pH 7.4 phosphate buffered saline): 4.24; FaSSGF solubility ([2]; FaSSGF): > 2000 µg/mL; fraction unbound at […] ([4]; human plasma, fraction unbound, read-out: Plasma fu): 0.0007; Ki [7]: 10 µM |
| C[C@H]1c2cccc(O)c2C(=O)C2=C(O)[C@]3(O)C(=O)C(C(N)=O)=C(O)[C@@H](N(C)C)[C@@H]3[C@@H](O)[C@@H]21 [Doxycyclin] | – | > 2000 µg/mL and > 4500 µM | 1.0 | > 1000 mg | Intermediate (50–84% absorption (intermediate)) | 0.70 10^−4 cm/s | 0.23 | > 2000 µg/mL and > 4500 µM | > 2000 µg/mL and > 4500 µM | > 2000 µg/mL and > 4500 µM | > 2000 µg/mL | > 20 µM | < 7 µL/min/mg | 0.41 ± 0.023 | nmi | solubility ([2]; FaSSGF, FaSSIF-V2, FeSSIF-V2 and PBS pH 7.4, 37 °C, pH 7.4, aqueous buffer): > 2000 µg/mL |
| CC1(C)N=C(N)N=C(N)N1c1ccc(Cl)cc1 [Cycloguanil] | – | > 2000 µg/mL and > 7950 µM | – | – | – | – | 0.75 ± 0.04 | > 2000 µg/mL and > 7950 µM | > 2000 µg/mL and > 7950 µM | 533 µg/mL and 2120 µM | – | > 20 µM | < 7 µL/min/mg | 0.88 ± 0.057 | nmi | – |

From paper PMC6941357, “An in vitro toolbox to accelerate anti-malarial drug discovery and development” (Malaria Journal, 2020)
